Values after ≈ are worked out from the molar mass of the structure shown. Read-outs that look alike come from different tables or passages of the source.
Experiments:
in vivo = conditions: read-out: values of acute toxicity
Text: (1) Acute toxicity in mouse:
The compounds according to this invention dissolved in a physiological saline solution were intravenously dosed to five ICR male 6 weeks-old mouse.

Kleb. pneumoniae EK-6 = test: Anti-bacterial activity (MIC), agar dilution; type: cell-based; conditions: Klebsiella pneumoniae, EK6, 18 h, Kleb. pneumoniae EK-6; agar dilution, about 10^6 CFU/ml, 18 hours, 37° C.; read-out: MIC
Outline: (§1)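 Agar dilution; MH broth overnight cultures → ~10^6 CFU/ml; spotted on MH agar with twofold serial drug dilutions; 18 h, 37° C; MIC in μg/ml.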

Escher. coli NIHJ = test: Anti-bacterial activity (MIC), agar dilution; type: cell-based; conditions: Escherichia coli, 18 h
Outline: as §1

Pseud. aeruginosa EP-01 = test: Anti-bacterial activity (MIC), agar dilution; type: cell-based; conditions: Pseudomonas aeruginosa, EP01, 18 h
Outline: as §1

Ser. marcescens ES-75 = test: Anti-bacterial activity (MIC), agar dilution; type: cell-based; conditions: Serratia marcescens, ES75, 18 h, Ser. marcescens ES-75; agar dilution, about 10^6 CFU/ml, 18 hours, 37° C.; read-out: MIC
Outline: as §1

[1] = system: Morganella morganii EP-14; test: Anti-bacterial activity (MIC), agar dilution; type: cell-based; conditions: Morganella morganii, EP14, 18 h, about 10^6 CFU/ml, 37° C., read-out: MIC
Outline: as §1

Staph. aureus 209-P = test: Anti-bacterial activity (MIC), agar dilution; type: cell-based; conditions: Staphylococcus aureus, 209P, 18 h, Staph. aureus 209-P; agar dilution, about 10^6 CFU/ml, 18 hours, 37° C.; read-out: MIC
Outline: as §1

[2] = intravenous, physiological saline solution, five ICR male 6 weeks-old mouse
[3] = Escher. coli NIHJ, agar dilution, about 10^6 CFU/ml, 18 hours, 37° C., read-out: MIC
[4] = Pseud. aeruginosa EP-01, agar dilution, about 10^6 CFU/ml, 18 hours, 37° C., read-out: MIC

Structure (SMILES)	LD50 (in vivo; [2])	MIC (Kleb. pneumoniae EK-6)	MIC (Escher. coli NIHJ)	MIC (Pseud. aeruginosa EP-01)	MIC (Ser. marcescens ES-75)	MIC [1]	MIC (Staph. aureus 209-P)	LD50 (in vivo; mouse, iv)	MIC (Escher. coli NIHJ; [3])	MIC (Pseud. aeruginosa EP-01; [4])
NC(=O)C1CC[N+](C/C=C/C2=C(C(=O)[O-])N3C(=O)[C@@H](NC(=O)/C(=N\OCF)c4nsc(N)n4)[C@H]3SC2)(CCO)CC1 (single isomer, unassigned) [Example 2-1, 7β-[2-(5-Amino-1,2,4-thiadiazol-3-yl)-(Z)-2-fluoromethoxyiminoacetamido]-3-[(E)-3-[1-(2-hydroxyethyl)-4-carbamoyl-1-piperidinio]-1-propen-1-yl]-3-cephem-4-carboxylate]	> 2000 mg/kg	0.05 µg/mL (≈ 0.0816 µM)	0.05 µg/mL (≈ 0.0816 µM)	1.56 µg/mL (≈ 2.55 µM)	0.05 µg/mL (≈ 0.0816 µM)	0.05 µg/mL (≈ 0.0816 µM)	0.4 µg/mL (≈ 0.653 µM)			
C[N+]1(C/C=C/C2=C(C(=O)[O-])N3C(=O)[C@@H](NC(=O)/C(=N\OCF)c4nsc(N)n4)[C@H]3SC2)C[C@H](O)C[C@@H]1CO (single isomer, unassigned) [Example 6-1, 7β-[2-(5-Amino-1,2,4-thiadiazol-3-yl)-(Z)-2-fluoromethoxyiminoacetamido]-3-[(E)-3-(4R-hydroxy-2R-hydroxymethyl-1-methyl-1-pyrrolidinio)-1-propen-1-yl]-3-cephem-4-carboxylate]		≤ 0.025 µg/mL			≤ 0.025 µg/mL	≤ 0.025 µg/mL	0.2 µg/mL (≈ 0.35 µM)	> 2000 mg/kg	0.05 µg/mL (≈ 0.0875 µM)	0.8 µg/mL (≈ 1.4 µM)
C[N+]1(C/C=C/C2=C(C(=O)[O-])N3C(=O)[C@@H](NC(=O)/C(=N\OCF)c4nsc(N)n4)[C@H]3SC2)CCN(S(N)(=O)=O)CC1 [Example 119, 7β-[2-(5-Amino-1,2,4-thiadiazol-3-yl)-(Z)-2-fluoromethoxyiminoacetamido]-3-[(E)-3-(1-methyl-4-sulfamoyl-1-piperazinio)-1-propen-1-yl]-3-cephem-4-carboxylate]		≤ 0.025 µg/mL			0.05 µg/mL (≈ 0.0807 µM)	≤ 0.025 µg/mL	0.2 µg/mL (≈ 0.323 µM)		≤ 0.025 µg/mL	0.8 µg/mL (≈ 1.29 µM)
C[N+](C)(C/C=C/C1=C(C(=O)[O-])N2C(=O)[C@@H](NC(=O)/C(=N\OCF)c3nsc(N)n3)[C@H]2SC1)Cc1nnco1 [Example 120, 7β-[2-(5-Amino-1,2,4-thiadiazol-3-yl)-(Z)-2-fluoromethoxyiminoacetamido]-3-[(E)-3-[(1,3,4-oxadiazol-2-yl)methyldimethylammonio]-1-propen-1-yl]-3-cephem-4-carboxylate]		≤ 0.025 µg/mL			0.05 µg/mL (≈ 0.0881 µM)	≤ 0.025 µg/mL	0.2 µg/mL (≈ 0.352 µM)		≤ 0.025 µg/mL	0.8 µg/mL (≈ 1.41 µM)
C[N+]1(C/C=C/C2=C(C(=O)[O-])N3C(=O)[C@@H](NC(=O)/C(=N\OCF)c4nsc(N)n4)[C@H]3SC2)CCN(C=N)CC1.Cl [Example 123, 7β-[2-(5-Amino-1,2,4-thiadiazol-3-yl)-(Z)-2-fluoromethoxyiminoacetamido]-3-[(E)-3-(1-methyl-4-formimidoyl-1-piperazinio)-1-propen-1-yl]-3-cephem-4-carboxylate hydrochloride]		0.05 µg/mL			0.2 µg/mL	0.05 µg/mL	0.4 µg/mL		0.05 µg/mL	1.56 µg/mL
C[N+]1(C/C=C/C2=C(C(=O)[O-])N3C(=O)[C@@H](NC(=O)/C(=N\OCF)c4nsc(N)n4)[C@H]3SC2)CCNCC1 [Example 124, 7β[2-(5-Amino-1,2,4-thiadiazol-3-yl)-(Z)-2-fluoromethoxyiminoacetamido]-3-[(E)-3-(1-methyl-1-piperazinio)-1-propen-1-yl]-3-cephem-4-carboxylate]		≤ 0.025 µg/mL			0.1 µg/mL (≈ 0.185 µM)	0.05 µg/mL (≈ 0.0925 µM)	0.2 µg/mL (≈ 0.37 µM)		0.05 µg/mL (≈ 0.0925 µM)	0.8 µg/mL (≈ 1.48 µM)
Nc1nc(/C(=N/OCF)C(=O)N[C@@H]2C(=O)N3C(C(=O)[O-])=C(/C=C/C[N+]45CCN(CC4)CC5)CS[C@H]23)ns1 [Example 129, 7β-[2-(5-Amino-1,2,4-thiadiazol-3-yl)-(Z)-2-fluoromethoxyiminoacetamido]-3-[(E)-3-(1,4-diazabicyclo[2,2,2]octan-1-io)-1-propen-1-yl]-3-cephem-4-carboxylate]		≤ 0.025 µg/mL			0.05 µg/mL (≈ 0.0905 µM)	≤ 0.025 µg/mL	0.2 µg/mL (≈ 0.362 µM)		≤ 0.025 µg/mL	0.8 µg/mL (≈ 1.45 µM)
CC(=O)C[N+](C)(C)C/C=C/C1=C(C(=O)[O-])N2C(=O)[C@@H](NC(=O)/C(=N\OCF)c3nsc(N)n3)[C@H]2SC1 [Example 137, 7β-[2-(5-Amino-1,2,4-thiadiazol-3-yl)-(Z)-2-fluoromethoxyiminoacetamido]-3-[(E)-3-[(2-oxopropyl)dimethylammonio]-1-propen-1-yl]-3-cephem-4-carboxylate]	> 2000 mg/kg									
Nc1nc(/C(=N/OCF)C(=O)N[C@@H]2C(=O)N3C(C(=O)[O-])=C(/C=C/C[N+](CCO)(CCO)CCO)CS[C@H]23)ns1 [Example 143, 7β-[2-(5-Amino-1,2,4-thiadiazol-3-yl)-(Z)-2 fluoromethoxyiminoacetamido]-3-[(E)-3-[tris(2-hydroxyethyl)ammonio]-1-propen-1-yl]-3-cephem-4-carboxylate]		≤ 0.025 µg/mL			0.1 µg/mL (≈ 0.17 µM)	≤ 0.025 µg/mL	0.2 µg/mL (≈ 0.339 µM)		0.05 µg/mL (≈ 0.0848 µM)	0.8 µg/mL (≈ 1.36 µM)
C[N+](C/C=C/C1=C(C(=O)[O-])N2C(=O)[C@@H](NC(=O)/C(=N\OCF)c3nsc(N)n3)[C@H]2SC1)(CCO)CCO [Example 144, 7β-[2-(5-Amino-1,2,4-thiadiazol-3-yl)-(Z)-2-fluoromethoxyiminoacetamido]-3-[(E)-3-[bis(2-hydroxyethyl)methylammonio]-1-propen-1-yl]-3-cephem-4-carboxylate]		0.05 µg/mL (≈ 0.0893 µM)			0.1 µg/mL (≈ 0.179 µM)	≤ 0.025 µg/mL	0.2 µg/mL (≈ 0.357 µM)		≤ 0.025 µg/mL	0.8 µg/mL (≈ 1.43 µM)
N#CCO/N=C(\C(=O)N[C@@H]1C(=O)N2C(C(=O)[O-])=C(/C=C/C[N+](CCO)(CCO)CCO)CS[C@H]12)c1nsc(N)n1 [Example 147]		0.05 µg/mL (≈ 0.0838 µM)			0.2 µg/mL (≈ 0.335 µM)	0.05 µg/mL (≈ 0.0838 µM)	0.2 µg/mL (≈ 0.335 µM)		0.4 µg/mL (≈ 0.67 µM)	1.56 µg/mL (≈ 2.61 µM)
CC(O)C[N+](C)(C)C/C=C/C1=C(C(=O)[O-])N2C(=O)[C@@H](NC(=O)/C(=N\OCC#N)c3nsc(N)n3)[C@H]2SC1 (stereo partly drawn) [Example 149]		0.05 µg/mL (≈ 0.0908 µM)			0.05 µg/mL (≈ 0.0908 µM)	0.05 µg/mL (≈ 0.0908 µM)	0.2 µg/mL (≈ 0.363 µM)		0.1 µg/mL (≈ 0.182 µM)	1.56 µg/mL (≈ 2.83 µM)
C[C@@H](O)[C@@H](C(N)=O)[N+](C)(C)C/C=C/C1=C(C(=O)[O-])N2C(=O)[C@@H](NC(=O)/C(=N\OCC#N)c3nsc(N)n3)[C@H]2SC1 [Example 153]		0.1 µg/mL (≈ 0.168 µM)			0.1 µg/mL (≈ 0.168 µM)	0.1 µg/mL (≈ 0.168 µM)	0.4 µg/mL (≈ 0.674 µM)		0.2 µg/mL (≈ 0.337 µM)	1.56 µg/mL (≈ 2.63 µM)
C[N+]1(C/C=C/C2=C(C(=O)[O-])N3C(=O)[C@@H](NC(=O)/C(=N\OCC#N)c4nsc(N)n4)[C@H]3SC2)CCN(S(N)(=O)=O)CC1 [Example 156]		0.1 µg/mL (≈ 0.16 µM)			0.1 µg/mL (≈ 0.16 µM)	0.1 µg/mL (≈ 0.16 µM)	0.4 µg/mL (≈ 0.638 µM)		0.1 µg/mL (≈ 0.16 µM)	0.8 µg/mL (≈ 1.28 µM)
N#CCO/N=C(\C(=O)N[C@@H]1C(=O)N2C(C(=O)[O-])=C(/C=C/C[N+]34CCN(CC3)CC4)CS[C@H]12)c1nsc(N)n1 [Example 157, 7β-[2-(5-Amino-1,2,4-thiadiazol-3-yl)-(Z)-2-cyanomethoxyiminoacetoamido]-3-[(E)-3-(1,4-diazabicyclo[2,2,2]octane-1-io)-1-propen-1-yl]-3-cephem-4-carboxylate]		0.1 µg/mL (≈ 0.179 µM)			0.2 µg/mL (≈ 0.357 µM)	0.1 µg/mL (≈ 0.179 µM)	0.4 µg/mL (≈ 0.715 µM)		0.1 µg/mL (≈ 0.179 µM)	1.56 µg/mL (≈ 2.79 µM)
N#CCO/N=C(\C(=O)N[C@@H]1C(=O)N2C(C(=O)[O-])=C(/C=C/C[n+]3ccc(C(N)=O)cc3)CS[C@H]12)c1nsc(N)n1 [Example 158, 7β-[2-(5-Amino-1,2,4-thiadiazol-3-yl)-(Z)-2-cyanomethoxyiminoacetoamido]-3-[(E)-3-(4-carbamoylpyridinio)-1-propen-1-yl]-3-cephem-4-carboxylate]		≤ 0.025 µg/mL			0.1 µg/mL (≈ 0.176 µM)	0.1 µg/mL (≈ 0.176 µM)	0.2 µg/mL (≈ 0.351 µM)		≤ 0.025 µg/mL	1.56 µg/mL (≈ 2.74 µM)
C[N+](C)(C/C=C/C1=C(C(=O)[O-])N2C(=O)[C@@H](NC(=O)/C(=N\OCC#N)c3nsc(N)n3)[C@H]2SC1)Cc1nnco1 [Example 159]		0.05 µg/mL (≈ 0.087 µM)			0.1 µg/mL (≈ 0.174 µM)	0.1 µg/mL (≈ 0.174 µM)	0.4 µg/mL (≈ 0.696 µM)		0.05 µg/mL (≈ 0.087 µM)	1.56 µg/mL (≈ 2.71 µM)
N#CCO/N=C(\C(=O)N[C@@H]1C(=O)N2C(C(=O)[O-])=C(/C=C/C[N+]34CCCN3CCC4)CS[C@H]12)c1nsc(N)n1 [Example 161, 7β-[2-(5-Amino-1,2,4-thiadiazol-3-yl)-(Z)-2-cyanomethoxyiminoacetoamido]-3-[(E)-3-(1,5-diazabicyclo[3.3.0]octane-1-io)-1-propen-1-yl]-3-cephem-4-carboxylate]		0.05 µg/mL (≈ 0.0893 µM)			0.2 µg/mL (≈ 0.357 µM)	0.1 µg/mL (≈ 0.179 µM)	0.2 µg/mL (≈ 0.357 µM)		0.05 µg/mL (≈ 0.0893 µM)	1.56 µg/mL (≈ 2.79 µM)
